# Data as given in patent publication US11033506B2, “External skin preparation comprising a core-shell structure” (SEKISUI CHEMICAL CO., LTD., priority 2017, dated 2021).
# Test: Octanol/water partition coefficient
# Format: physicochemical
# Settings: Log10 (octanol phase/aqueous phase), aqueous buffer solution of pH 7
# Description: Specifically, the octanol/water partition coefficient can be determined by calculation using an equation: Octanol/water partition coefficient=Log10 (concentration in an octanol phase/concentration in an aqueous phase).
SMILES,octanol/water partition coefficient,logD (octanol/aqueous buffer solution (pH 7))
O=C1CCc2ccc(OCCCCN3CCN(c4cccc(Cl)c4Cl)CC3)cc2N1 [aripiprazole],4.5,4.5
O=C(O)c1cc(/N=N/c2ccc(S(=O)(=O)Nc3ccccn3)cc2)ccc1O [sulfasalazine],2.3,–
